Measurements published in ChEMBL document CHEMBL1141623 (Bioorg Med Chem Lett, 2008).

What was measured:
Mu-type opioid receptor = Mu-type opioid receptor (Homo sapiens, UniProt P35372); test: Binding affinity to mu opioid receptor
[1] = target: Sodium-dependent serotonin transporter (Homo sapiens, UniProt P31645); test: Inhibition of SERT mediated 5-hydroxytryptamine uptake
[2] = target: Sodium-dependent noradrenaline transporter (Homo sapiens, UniProt P23975); test: Inhibition of NET mediated norepinephrine uptake
[3] = Stability in rat liver microsome after 60 mins; assay type: ADME; conditions: liver microsomes, read-out: Stability
[4] = Stability in rat liver S9 fraction after 60 mins; assay type: ADME, subcellular; conditions: read-out: Stability
[5] = Stability in human liver microsome after 60 mins; assay type: ADME; conditions: liver microsomes, read-out: Stability
[6] = Stability in human liver S9 fraction after 60 mins; assay type: ADME, subcellular; conditions: read-out: Stability
Rattus norvegicus [7] = test: Analgesic activity in iv dosed Sprague-Dawley rat assessed as duration of effect by tail-flick model of pain; assay type: functional
Rattus norvegicus [8] = test: Analgesic activity in iv dosed Sprague-Dawley rat by tail-flick model of pain; assay type: functional
Rattus norvegicus [9] = test: Toxicity in iv dosed Sprague-Dawley rat; assay type: organism-based; conditions: in vivo
[10] = Bioavailability in […] dosed Sprague-Dawley rat; assay type: ADME, organism-based; conditions: in vivo

Sodium-dependent serotonin transporter, sequence (P31645 whole entry): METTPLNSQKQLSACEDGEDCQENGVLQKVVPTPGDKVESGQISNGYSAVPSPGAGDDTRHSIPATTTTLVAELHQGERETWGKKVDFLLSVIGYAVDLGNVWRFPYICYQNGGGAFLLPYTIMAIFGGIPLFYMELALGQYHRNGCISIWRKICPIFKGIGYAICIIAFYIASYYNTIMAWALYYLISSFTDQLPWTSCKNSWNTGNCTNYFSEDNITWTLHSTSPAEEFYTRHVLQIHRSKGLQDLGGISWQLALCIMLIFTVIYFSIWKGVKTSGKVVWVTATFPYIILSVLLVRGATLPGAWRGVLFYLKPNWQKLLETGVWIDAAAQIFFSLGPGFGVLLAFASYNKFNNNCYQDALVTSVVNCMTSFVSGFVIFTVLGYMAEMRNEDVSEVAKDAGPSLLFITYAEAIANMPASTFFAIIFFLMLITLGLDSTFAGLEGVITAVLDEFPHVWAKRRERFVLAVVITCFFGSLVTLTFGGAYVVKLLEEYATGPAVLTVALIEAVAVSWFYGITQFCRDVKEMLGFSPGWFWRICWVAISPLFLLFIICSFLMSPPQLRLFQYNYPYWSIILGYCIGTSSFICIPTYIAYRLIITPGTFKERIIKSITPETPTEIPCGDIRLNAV
Sodium-dependent noradrenaline transporter, sequence (P23975 whole entry): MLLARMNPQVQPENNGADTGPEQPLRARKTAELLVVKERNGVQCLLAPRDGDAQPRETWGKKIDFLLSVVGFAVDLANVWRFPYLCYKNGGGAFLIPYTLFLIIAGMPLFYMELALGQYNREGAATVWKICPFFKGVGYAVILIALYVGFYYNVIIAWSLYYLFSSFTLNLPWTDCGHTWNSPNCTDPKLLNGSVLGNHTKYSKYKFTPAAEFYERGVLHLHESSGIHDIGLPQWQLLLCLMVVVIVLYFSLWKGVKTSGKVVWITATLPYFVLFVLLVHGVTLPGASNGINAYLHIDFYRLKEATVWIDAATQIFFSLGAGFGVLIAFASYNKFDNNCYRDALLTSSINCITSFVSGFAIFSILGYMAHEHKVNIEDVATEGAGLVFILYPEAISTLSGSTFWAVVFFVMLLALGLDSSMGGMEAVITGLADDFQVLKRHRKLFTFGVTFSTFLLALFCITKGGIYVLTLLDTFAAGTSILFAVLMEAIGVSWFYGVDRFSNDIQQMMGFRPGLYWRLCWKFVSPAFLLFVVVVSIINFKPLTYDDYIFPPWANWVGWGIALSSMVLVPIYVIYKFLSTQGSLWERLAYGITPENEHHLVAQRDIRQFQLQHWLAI
Mu-type opioid receptor, sequence (P35372 whole entry): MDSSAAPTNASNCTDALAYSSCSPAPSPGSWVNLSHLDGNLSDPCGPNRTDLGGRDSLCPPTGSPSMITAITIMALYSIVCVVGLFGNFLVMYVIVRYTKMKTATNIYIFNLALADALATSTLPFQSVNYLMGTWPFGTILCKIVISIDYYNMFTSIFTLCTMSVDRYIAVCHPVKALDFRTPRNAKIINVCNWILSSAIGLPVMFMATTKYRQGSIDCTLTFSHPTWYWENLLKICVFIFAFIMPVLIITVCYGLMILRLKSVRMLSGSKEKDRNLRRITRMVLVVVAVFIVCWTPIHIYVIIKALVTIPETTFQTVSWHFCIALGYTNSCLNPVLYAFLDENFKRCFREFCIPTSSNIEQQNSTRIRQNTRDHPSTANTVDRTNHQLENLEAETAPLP

Row | SMILES | IC50 (Mu-type opioid receptor) [µM] | IC50 [1] [µM] | IC50 [2] [µM] | remaining at 1 h [3] [%] | remaining at 1 h [4] [%] | remaining at 1 h [5] [%] | remaining at 1 h [6] [%] | Time (Rattus norvegicus [7]) [min] | ED50 (Rattus norvegicus [8]) [mg/kg] | Activity (Rattus norvegicus [9]) | bioavailability [10] [%]
1 | CO[C@]1(c2cccc(C#N)c2)CCCC[C@@H]1CN(C)C | > 10 | 6.24 | 4.49 | 69 | 83 | 89 | 94 |  |  |  | 
2 | CN(C)C[C@H]1CCCC[C@]1(OCC1CC1)c1cccc(O)c1 | 0.13 | 3.67 | > 10 |  |  |  |  |  |  |  | 
3 | CNC[C@@H]1CCCC[C@@]1(OC)c1cccc(OC)c1 | > 10 |  | 0.898 |  |  |  |  | 27 | 3.1 |  | 
4 | CCCO[C@]1(c2cccc(OC)c2)CCCC[C@@H]1CN(C)C | 7.9 | 0.025 | 3.87 |  |  |  |  |  |  |  | 
5 | CNC[C@H]1CCCC[C@]1(OC)c1cccc(OC)c1 | > 10 |  | > 10 |  |  |  |  |  |  | Toxic | 
6 | COc1cccc([C@@]2(OCCCO)CCCC[C@@H]2CN(C)C)c1 | 8 | 1.49 | 3.86 |  |  |  |  |  |  |  | 
7 | CN(C)C[C@H]1CCCC[C@]1(OCCO)c1cccc(O)c1 | 0.19 | 1.5 | 5.95 |  |  |  |  |  |  |  | 
8 | COc1cccc([C@@]2(OCCO)CCCC[C@@H]2CN(C)C)c1 | > 10 | > 10 | > 10 |  |  |  |  |  |  |  | 
9 | CCCCO[C@]1(c2cccc(OC)c2)CCCC[C@@H]1CN(C)C | 6.49 | 0.11 | 6.69 | 3 | 4 | 9 | 10 |  |  |  | 
10 | CO[C@@]1(c2ccccc2)CCCC[C@H]1CN(C)C | > 10 | 3.88 | 1.56 |  |  |  |  | 13 | 3.3 |  | 
11 | CCCCO[C@]1(c2cccc(O)c2)CCCC[C@@H]1CN(C)C | 0.097 | 2.74 | > 10 |  |  |  |  |  |  |  | 
12 | CO[C@]1(c2cccc(O)c2)CCCC[C@@H]1CN(C)C | 0.056 | 10 | 0.525 | 88 | 74 | 104 | 98 |  |  |  | 
13 | CCCO[C@]1(c2cccc(O)c2)CCCC[C@@H]1CN(C)C | 0.19 | 2.8 | 6.25 |  |  |  |  |  |  |  | 
14 | CCO[C@]1(c2cccc(O)c2)CCCC[C@@H]1CN(C)C | 0.13 | 1.42 | 3.78 |  |  |  |  |  |  |  | 
15 | CCO[C@]1(c2cccc(OC)c2)CCCC[C@@H]1CN(C)C | > 10 | 0.181 | 1.01 |  |  |  |  |  |  |  | 
16 | COc1cccc([C@@]2(OCC3CC3)CCCC[C@@H]2CN(C)C)c1 | 7.67 | 0.025 | 3.78 | 3 | 6 | 29 | 35 |  |  |  | 
17 | CNC[C@@H]1CCCC[C@@]1(OC)c1cccc(O)c1 | 0.084 | 1.05 | 9 |  |  |  |  |  |  |  | 
18 | CNCC1CCCCC1(OC)c1cccc(OC)c1 (racemic) | > 10 |  | 3.87 | 31 | 26 | 77 | 76 |  | 2.9 |  | 
19 | COc1cccc([C@@]2(OC)CCCC[C@@H]2CN(C)C)c1 (racemic) | 7.87 |  | 0.161 | 17 | 12 | 82 | 85 | 20 | 0.7 |  | 11
20 | CN(C)C[C@H]1CCCC[C@]1(O)c1cccc(O)c1 (racemic) [O-DESMETHYL TRAMADOL] |  |  | > 10 |  |  |  |  | 2 |  |  | 
21 | COc1cccc(C2(O)CCCCC2CN(C)C)c1 (racemic) [TRAMADOL] |  |  | 3.86 | 58 | 56 | 96 | 95 | 69 | 11.3 |  | 36
22 | CO[C@]1(c2ccccc2)CCCC[C@@H]1CN(C)C (stereo in doubt; 14) | 4.75 | 2.53 | 3.79 | 56 | 61 | 96 | 101 |  |  |  | 
23 | CNC[C@H]1CCCC[C@]1(OC)c1cccc(O)c1 (stereo in doubt; 23) | 0.122 | 6.92 | 2.25 | 86 | 82 | 103 | 108 |  |  |  | 
24 | CNC[C@H]1CCCC[C@]1(OC)c1cccc(O)c1 (stereo in doubt; 26) | 0.048 | 5.26 | > 10 |  |  |  |  |  |  |  | 
25 | CO[C@]1(c2ccccc2)CCCC[C@@H]1CN(C)C (stereo in doubt; 28) | 2.59 | 2.96 | 1.52 |  |  |  |  |  |  | Toxic | 
